Assay results taken from patent US20250122193A1, “NOVEL PYRIDOCARBAZOLIUM COMPOUNDS AND MEDICAL USES THEREOF” (MyCural Therapeutics, priority 2021, published 2025).

Assays:
[1] = molecular target: T1, recombinant bHLHZip domain of the MYC protein (Homo sapiens, UniProt P01106); assay: surface plasmon resonance (SPR), MYC bHLHZip; type: binding
T1 construct: using the recombinant bHLHZip domain of the MYC protein; 6xHis (N); made in house; host or cells: E. coli BL21 (DE3)
Procedure: FIG. 1: MYCMI-7 (Compound Example 1) inhibits the MYC:MAX interaction in cells, bind MYC in vitro, and blocks MYC function. A) Molecular structure of MYCMI-7. B-E) split Gaussia luciferase (GLuc) assay. MYC or MYCN and MAX Gluc constructs were co-transfected into HeLa cells together with a firefly luciferase vector. 24 hours post transfection cells were treated with compounds, and after another 17-24 hours cells were harvested and both GLuc and firefly luciferase activities were measured. The mean of three different experiments is shown. Treatment with: B) 5 μM of MYCMI-7, 64 μM 10058-F4 or 5 μM JQ1, respectively, C) 6.5 μM MYCMI-7 on cells expressing MYC:MAX GLuc vs. GCN4:GCN4 GLuc, D) 5 μM MYCMI-7 and 5 μM ellipticine. E) 5 μM MYCMI-7 for various time points. F) in situ proximity ligation assay (isPLA). […] MYC:GAL4 was used as negative control in the isPLA assay. G) Quantification of isPLA dots. (H) Co-immunoprecipitation (co-IP) of endogenous MYC and MAX proteins from MCF7 cells after treatment with 5 μM MYCMI-7 at various times. IP=immunoprecipitation; W=western blot. […] J) MYC target gene ODC1 expression after treatment with 5 μM MYCMI-7, quantified by qPCR. […] L) Recombinant MYC bHLHZip protein domain immobilized onto a CM5 chip was subjected to various concentrations of MYCMI-7 and the complex of MYCbHLHZip-MYCMI-7 was measured as response units by SPR. […]

[2] = test system: Rat1 fibroblasts TGR1 (wt MYC) and HOMyc3 (reconstituted MYC); assay: WST-1 growth/viability assay, MYC-expressing Rat1 fibroblasts; type: cell-based, rat; settings: Rattus norvegicus, TGR1, 48 h, read-out: GI50 (average growth inhibition of 50%)
Procedure: A) Immortalized Rat1 fibroblasts with different MYC status; TGR1 (wt MYC), HO15.19 (MYC−/−) and HOMyc3 (HO15.19 with reconstituted MYC) were treated with indicated concentrations of MYCMI-7 for 48 hours. Cell proliferation/viability/metabolic activity was measured using the WST-1 assay. […] “Responsive” and “less responsive”; cell lines with positive and negative log 10 GI50 values, respectively. […] For the WST-1 assays the average of three different experiments performed in triplicates is shown.
Cell growth and viability assays: Cell growth and viability was estimated in triplicates with WST-1 (Roche) or Resazurin sodium salt (Sigma-Aldrich) assays in medium at 37° C. and 5% CO2 for 2 hours after which absorbance or fluorescence, respectively, was measured with an Omega Fluostar (BMG Labtech) in a 96 well plate format.

MYC mRNA = MYC mRNA expression by RT-qPCR; type: cell-based
Procedure: A) Measurement of MYC mRNA expression by RTqPCR after treatment with MYCMI-7 and different topoisomerase inhibitors at indicated concentrations. […] D) Western blot analysis of p53 and p21 expression after exposure to 5 μM MYCMI-7, ellipticine or camptothecin (CPT) in HCT116 cells. E) Western blot analysis of phospho-ATM, total ATM and p53 expression after exposure to indicated concentrations of MYCMI-7 and ellipticine in A375 cells after 3 hrs treatment.

[3] = test system: primary patient derived AML cell cultures and established AML/CML cell lines; assay: primary AML cells and AML/CML cell lines, WST-1 assay
Procedure: C) Primary AML cells from patient biopsies where cultured for 72 hours in presence of MYCMI-7 at indicated doses cell growth was monitored by the WST-1 assay. One representative biological experiment out of at three, performed in triplicates is shown.
Cell growth and viability assays: Cell growth and viability was estimated in triplicates with WST-1 (Roche) or Resazurin sodium salt (Sigma-Aldrich) assays in medium at 37° C. and 5% CO2 for 2 hours after which absorbance or fluorescence, respectively, was measured with an Omega Fluostar (BMG Labtech) in a 96 well plate format. Cell viability by the Cyt60 assay was carried out as in manufacturers' protocol.

[4] = test system: primary normal human epidermal melanocytes (NHEM); assay: cell growth and trypan blue viability, NHEM; type: cell-based; settings: 72 hours
Procedure: FIG. 4: MYCMI-7 induces apoptosis in malignant cells and growth arrest in normal cells. A) Cell cycle distribution analysis by flow cytometry of MYC-regulated P493-6 cells and normal rat embryo fibroblasts (REFs). Left panel, P493-6 synchronized in G0 by 24 hours treatment of […] doxycycline. Doxycycline was removed and the cells were harvested 48 hours after the addition of fresh medium containing DMSO or 5 μM MYCMI-7. Right panel, flow cytometry analysis of normal REFs treated with DMSO or 5 μM MYCMI-7. B) Apoptosis assay using the Cell Death Detection ELISA^plus kit. Left panel, immortalized Rat1 fibroblasts with different MYC status after 24 hours of 5 μM MYCMI-7 treatment, middle panel and right panels, normal REFs and normal peripheral blood lymphocytes, respectively, after 24 and 48 hours of 5 μM MYCMI-7 treatment. C) Measurement of viability and apoptosis by Apo-Tox Glo Triplex assay in A375 melanoma cells after 3 days of treatment with MYCMI-7 with the indicated concentrations. […] E) NHDFs treated with 3 μM MYCMI-7 for 72 hrs. Viability was measured by trypan blue exclusion assay. F) Cell growth measured with Cyt62 assay of primary normal human epidermal melanocytes (NHEM) treated for 72 hours with MYCMI-7, G) Viability measured by trypan blue exclusion assay of NHEM after treatment for 72 hours with MYCMI-7.

in vivo = settings: mouse, plasma, ip, 6.25 mg/kg
Procedure: Blood and brains were collected from three to four mice per group at 0, 1, 2, 4 and 24 hours following injection of 6.25 mg/kg ToM. Plasma samples were extracted using protein precipitation. Brain samples were extracted by homogenization in acetonitrile:DMSO, 95:5 using a gentleMACS Dissociater and gentleMACS™ M Tubes. The protein in the mouse plasma samples was removed by protein precipitation with acetonitrile containing the internal standard. After protein precipitation the study samples were centrifuged, and the resulting supernatant was analyzed. The acetonitrile:DMSO from the brain sample homogenates were spiked with the internal standard and then analyzed. All samples were analyzed by first separating them by reversed phase gradient LC and subsequently detecting them using positive electrospray ionization and multiple reaction monitoring (MRM).
First, we performed a pharmacokinetic study of the behavior of the molecule in mice.

T1 sequence (P01106 368-454 limits assumed): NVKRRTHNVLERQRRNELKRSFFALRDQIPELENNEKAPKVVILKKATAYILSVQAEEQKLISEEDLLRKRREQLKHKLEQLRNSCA

In the case of `CCN(CC)CC[n+]1ccc2c(C)c3[nH]c4ccccc4c3c(C)c2c1` [MYCMI-7, 2-(5,11-Dimethyl-6H-25-pyrido[4,3-b]carbazol-2-yl)-N,N-diethylethanamine bromide], the “binding to recombinant MYC by SPR” value [1] is reported as “binds directly to MYC”, the Kd ([1]; SPR, Langmuir 1:1 analysis) is reported as about 4 µM and the GI50 [2] is reported as about 2000 nM. The “MYC expression (mRNA)” value (MYC mRNA; 5 μM) was “only minor effect”, the “MYC mRNA expression” value (MYC mRNA; MCF7 cells, various time points) was “not due to reduced MYC mRNA expression” and the “efficiency compared with 10058-F4, JQ1 and cisplatin” value [3] was “more efficient”. The GI50 ([3]; Homo sapiens) was 150 to 1300 nM, the “cell death (trypan blue)” value [4] was “did not induce cell death” and the metabolic activity [4] was “reduced metabolic activity”. For the same compound, the half-life (in vivo) was 90 min.
